Test system: NRF2
Assay: NQO1 mRNA levels in skin cultured in the device and treated with an NRF2 activator
Assay type: cell-based
Conditions: tissue treated on Day 0 versus Day 4 of culture in the 384-well device
Method: FIG. 8A is a perspective view of another embodiment of the present invention 341. […] The base has holes (not shown) which receive fixings 349. […] FIG. 8B is a schematic diagram which summarises an experiment in which skin cultured in the apparatus 341 was treated with a small molecule NRF2 activator (TBE-31) in order to evaluate the intracellular viability of the tissue. NRF2 transcriptionally regulates multiple genes that play both direct and indirect roles in activating intracellular anti-oxidative pathways.

Structure (SMILES): C#C[C@]12C=C(C#N)C(=O)C=C1[C@@]1(C)C=C(C#N)C(=O)C(C)(C)[C@@H]1CC2 [TBE-31]
- NRF2 response (NQO1 mRNA levels) in cultured skin: statistically the same

Source: patent publication US20190314812A1, “SKIN SAMPLE CULTURE AND MEMBRANE TEST DEVICE” (The University of Dundee, priority 2016, published 2019)
